Tested on: Escherichia coli (E. coli)
Assay: Simple test for antimicrobial activity using E. coli based on JIS Z2801 (0.9% NaCl, fluorescent dye viability)
Format: cell-based
Conditions: Example 5, FIG. 8, Cu sample piece, 5 minutes after seeding
Source text: In this Example, effects of GSH, which is a biological reducing substance, on antimicrobial activity of copper and copper alloys were studied by a simple test for antimicrobial activity using E. coli based on the test for antimicrobial activity specified in JIS Z2801. As shown in FIG. 6(a), first, a copper (Cu) sample piece (15 mm square) was placed on the bottom surface of a glass container. Next, on the upper surface of the sample piece, 0.9% NaCl (−GSH) not containing GSH as a solvent or a 0.9% NaCl solution (+GSH) containing GSH at a concentration of 1.0 mM as a solvent was used to seed about 1.0×10^6 cells/50 μL of E. coli. This bacterial suspension was covered with a polyethylene (PE) sheet so as not to dry the bacterial suspension. Then, the glass container was placed under static culture condition of 35±1° C. The PE sheet was removed 0 minute (immediately after seeding), 5 minutes, and 10 minutes after seeding of E. coli, and 1 mL of 0.9% NaCl+0.1 mM EDTA-2Na was added to the bacterial suspension, and the bacterial suspension was collected by pipetting. A fluorescent dye was added to the collected bacterial suspension, and viability of E. coli was determined by measuring fluorescence intensity. In order to avoid a contact between the back surface of the Cu sample piece and the solution when collecting E. coli, the back surface of the Cu sample piece was coated with a thin silicone sheet in advance. […] GSH was added at a concentration of 0 mM (no addition), 1.0 mM, 2.0 mM, and 10.0 mM, and the results are shown in this order from the left. In FIG. 8, the longitudinal axis represents a ratio of bacterial viability (relative viability) normalized to the bacterial viability in the control test as 1. […] Note that the time from seeding of E. coli to collection of a bacterial suspension was set to 5 minutes.

N[C@@H](CCC(=O)N[C@@H](CS)C(=O)NCC(=O)O)C(=O)O [GSH, Reduced glutathione]
bacterial viability (relative viability) (GSH 1.0 mM): decreased more than a case without GSH | bacterial viability (relative viability) (GSH 2.0 mM): equivalent or greater than the result without GSH | bacterial viability (relative viability) (GSH 10.0 mM): equivalent or greater than the result without GSH

Source: US11535939B2, “Surface treatment method for copper or copper alloy, surface treatment liquid for sterilizing copper or copper alloy, and sterilization method using copper or copper alloy treated by said method” (NATIONAL INSTITUTE FOR MATERIALS SCIENCE, priority 2017, dated 2022)
